Laboratory results published in patent publication US20120101032A1, “NOVEL MACROCYCLIC INHIBITORS OF HEPATITIS C VIRUS REPLICATION” (priority 2010, published 2012).

Assays:
NS3/NS4 complexes = NS3/NS4 complexes (Hepatitis C virus genotype 1a, UniProt P27958); assay: biochemical; settings: NS3-NS4 activity; 23° C., pH 7.5, 25 μM NS4A peptide; read-out: IC50
Source text: NS3-NS4 inhibition activity can be determined using known assay methods. For example, NS3/NS4 complexes may be formed and inhibitory concentrations of test compounds determined as described in U.S. Patent Application Publication Number 2007/0054842 paragraph numbers 1497-1509, which is incorporated herein by reference in its entirety. Similarly, hepatitis C replicon EC50 may be determined using known assay methods such as described in U.S. Patent Application Publication Number 2007/0054842 paragraph numbers 1510-1515, which is incorporated herein by reference in its entirety. Assays may be conducted at ambient temperature (23° C.) in assay buffer containing 50 mM Tris-HCl, pH 7.5, 15% glycerol, 0.6 mM Lauryldimethylamine Oxide (LDAO), 25 μM NS4A peptide, and 10 mM Dithiothreitol (DTT).

hepatitis C replicon = hepatitis C replicon EC50 assay; type: cell-based; settings: Hepatitis C virus; hepatitis C replicon; read-out: EC50
Source text: NS3-NS4 inhibition activity can be determined using known assay methods.

Chain of NS3/NS4 complexes (P27958 1027-1657, one chain of several): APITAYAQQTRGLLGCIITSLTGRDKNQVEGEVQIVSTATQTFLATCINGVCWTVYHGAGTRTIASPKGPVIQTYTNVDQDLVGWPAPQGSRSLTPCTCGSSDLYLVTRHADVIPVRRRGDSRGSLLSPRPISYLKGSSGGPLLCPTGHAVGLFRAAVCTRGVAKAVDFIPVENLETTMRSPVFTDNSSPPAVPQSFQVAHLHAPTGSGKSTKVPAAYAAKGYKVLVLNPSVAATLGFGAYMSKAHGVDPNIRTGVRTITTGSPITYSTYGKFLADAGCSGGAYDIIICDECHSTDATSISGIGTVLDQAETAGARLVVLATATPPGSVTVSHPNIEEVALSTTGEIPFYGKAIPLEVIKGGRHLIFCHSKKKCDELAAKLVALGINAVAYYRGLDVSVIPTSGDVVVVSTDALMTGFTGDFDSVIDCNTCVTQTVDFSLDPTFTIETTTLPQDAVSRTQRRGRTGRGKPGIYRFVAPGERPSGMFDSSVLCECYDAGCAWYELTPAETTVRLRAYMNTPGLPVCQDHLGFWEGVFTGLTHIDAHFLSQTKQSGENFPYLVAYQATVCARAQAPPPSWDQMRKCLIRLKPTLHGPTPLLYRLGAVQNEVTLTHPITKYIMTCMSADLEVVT

CC(C)n1c(O[C@@H]2C[C@H]3C(=O)N[C@]4(C(=O)NS(=O)(=O)C5(C)CC5)C[C@H]4/C=C\CCCCC[C@H](NC(=O)OC(C)(C)C)C(=O)N3C2)nc2c(-c3nc(-c4cccc(Cl)c4)cs3)cccc21 [Compound 101]
IC50 (NS3/NS4 complexes): < 10 nM
EC50 (hepatitis C replicon): 10 to 100 nM

COc1ccccc1-c1csc(-c2cccc3c2nc(O[C@@H]2C[C@H]4C(=O)N[C@]5(C(=O)NS(=O)(=O)C6(C)CC6)C[C@H]5/C=C\CCCCC[C@H](NC(=O)OC(C)(C)C)C(=O)N4C2)n3C(C)C)n1 [Compound 102]
IC50 (NS3/NS4 complexes): < 10 nM
EC50 (hepatitis C replicon): < 10 nM

COc1cccc(-c2csc(-c3cccc4c3nc(O[C@@H]3C[C@H]5C(=O)N[C@]6(C(=O)NS(=O)(=O)C7(C)CC7)C[C@H]6/C=C\CCCCC[C@H](NC(=O)OC(C)(C)C)C(=O)N5C3)n4C(C)C)n2)c1 [Compound 103]
IC50 (NS3/NS4 complexes): < 10 nM
EC50 (hepatitis C replicon): < 10 nM

CC(C)n1c(O[C@@H]2C[C@H]3C(=O)N[C@]4(C(=O)NS(=O)(=O)C5(C)CC5)C[C@H]4/C=C\CCCCC[C@H](NC(=O)OC(C)(C)C)C(=O)N3C2)nc2c(-c3nc(-c4cccc(F)c4)cs3)cccc21 [Compound 104]
IC50 (NS3/NS4 complexes): < 10 nM
EC50 (hepatitis C replicon): 10 to 100 nM

CC(C)n1c(O[C@@H]2C[C@H]3C(=O)N[C@]4(C(=O)NS(=O)(=O)C5(C)CC5)C[C@H]4/C=C\CCCCC[C@H](NC(=O)OC(C)(C)C)C(=O)N3C2)nc2c(-c3nc(-c4ccc(Br)cc4)cs3)cccc21 [Compound 106]
IC50 (NS3/NS4 complexes): < 10 nM
EC50 (hepatitis C replicon): > 100 nM

CC(C)n1c(O[C@@H]2C[C@H]3C(=O)N[C@]4(C(=O)NS(=O)(=O)C5(C)CC5)C[C@H]4/C=C\CCCCC[C@H](NC(=O)OC(C)(C)C)C(=O)N3C2)nc2c(-c3nc(-c4ccc(Cl)c(Cl)c4)cs3)cccc21 [Compound 107]
IC50 (NS3/NS4 complexes): < 10 nM
EC50 (hepatitis C replicon): 10 to 100 nM

CC(C)n1c(O[C@@H]2C[C@H]3C(=O)N[C@]4(C(=O)NS(=O)(=O)C5(C)CC5)C[C@H]4/C=C\CCCCC[C@H](NC(=O)OC(C)(C)C)C(=O)N3C2)nc2c(-c3nc(-c4ccc(F)c(F)c4)cs3)cccc21 [Compound 108]
IC50 (NS3/NS4 complexes): < 10 nM
EC50 (hepatitis C replicon): < 10 nM

CC(C)n1c(O[C@@H]2C[C@H]3C(=O)N[C@]4(C(=O)NS(=O)(=O)C5(C)CC5)C[C@H]4/C=C\CCCCC[C@H](NC(=O)OC(C)(C)C)C(=O)N3C2)nc2c(-c3nc(-c4ccc(F)c(C(F)(F)F)c4)cs3)cccc21 [Compound 109]
IC50 (NS3/NS4 complexes): < 10 nM
EC50 (hepatitis C replicon): 10 to 100 nM

CC(C)n1c(O[C@@H]2C[C@H]3C(=O)N[C@]4(C(=O)NS(=O)(=O)C5(C)CC5)C[C@H]4/C=C\CCCCC[C@H](NC(=O)OC(C)(C)C)C(=O)N3C2)nc2c(-c3nc(-c4ccc(OC(F)(F)F)cc4)cs3)cccc21 [Compound 110]
IC50 (NS3/NS4 complexes): < 10 nM
EC50 (hepatitis C replicon): > 100 nM

CC(C)n1c(O[C@@H]2C[C@H]3C(=O)N[C@]4(C(=O)NS(=O)(=O)C5(C)CC5)C[C@H]4/C=C\CCCCC[C@H](NC(=O)OC(C)(C)C)C(=O)N3C2)nc2c(-c3nc(-c4ccc(F)cc4F)cs3)cccc21 [Compound 111]
IC50 (NS3/NS4 complexes): < 10 nM
EC50 (hepatitis C replicon): 10 to 100 nM

CC(C)n1c(O[C@@H]2C[C@H]3C(=O)N[C@]4(C(=O)NS(=O)(=O)C5(C)CC5)C[C@H]4/C=C\CCCCC[C@H](NC(=O)OC(C)(C)C)C(=O)N3C2)nc2c(-c3nc(-c4ccc5c(c4)OCCO5)cs3)cccc21 [Compound 112]
IC50 (NS3/NS4 complexes): < 10 nM
EC50 (hepatitis C replicon): < 10 nM

CC(C)n1c(O[C@@H]2C[C@H]3C(=O)N[C@]4(C(=O)NS(=O)(=O)C5(C)CC5)C[C@H]4/C=C\CCCCC[C@H](NC(=O)OC(C)(C)C)C(=O)N3C2)nc2c(-c3nc(-c4ccc(C(C)(C)C)cc4)cs3)cccc21 [Compound 113]
IC50 (NS3/NS4 complexes): < 10 nM
EC50 (hepatitis C replicon): 10 to 100 nM

Cc1ccccc1Cc1csc(-c2cccc3c2nc(O[C@@H]2C[C@H]4C(=O)N[C@]5(C(=O)NS(=O)(=O)C6(C)CC6)C[C@H]5/C=C\CCCCC[C@H](NC(=O)OC(C)(C)C)C(=O)N4C2)n3C(C)C)n1 [Compound 114]
IC50 (NS3/NS4 complexes): < 10 nM
EC50 (hepatitis C replicon): < 10 nM

COc1ccccc1Cc1csc(-c2cccc3c2nc(O[C@@H]2C[C@H]4C(=O)N[C@]5(C(=O)NS(=O)(=O)C6(C)CC6)C[C@H]5/C=C\CCCCC[C@H](NC(=O)OC(C)(C)C)C(=O)N4C2)n3C(C)C)n1 [Compound 115]
IC50 (NS3/NS4 complexes): < 10 nM
EC50 (hepatitis C replicon): < 10 nM

CC(C)c1ccc(Cc2csc(-c3cccc4c3nc(O[C@@H]3C[C@H]5C(=O)N[C@]6(C(=O)NS(=O)(=O)C7(C)CC7)C[C@H]6/C=C\CCCCC[C@H](NC(=O)OC(C)(C)C)C(=O)N5C3)n4C(C)C)n2)cc1 [Compound 116]
IC50 (NS3/NS4 complexes): < 10 nM
EC50 (hepatitis C replicon): 10 to 100 nM

CC(C)n1c(O[C@@H]2C[C@H]3C(=O)N[C@]4(C(=O)NS(=O)(=O)C5(C)CC5)C[C@H]4/C=C\CCCCC[C@H](NC(=O)OC(C)(C)C)C(=O)N3C2)nc2c(-c3nc(Cc4cccc(Br)c4)cs3)cccc21 [Compound 117]
IC50 (NS3/NS4 complexes): < 10 nM
EC50 (hepatitis C replicon): 10 to 100 nM

CC(C)n1c(O[C@@H]2C[C@H]3C(=O)N[C@]4(C(=O)NS(=O)(=O)C5(C)CC5)C[C@H]4/C=C\CCCCC[C@H](NC(=O)OC(C)(C)C)C(=O)N3C2)nc2c(-c3nc(Cc4ccc(-c5ccccc5)cc4)cs3)cccc21 [Compound 118]
IC50 (NS3/NS4 complexes): < 10 nM
EC50 (hepatitis C replicon): < 10 nM

CC(C)n1c(O[C@@H]2C[C@H]3C(=O)N[C@]4(C(=O)NS(=O)(=O)C5(C)CC5)C[C@H]4/C=C\CCCCC[C@H](NC(=O)OC(C)(C)C)C(=O)N3C2)nc2c(-c3nc(Cc4cccc(C(F)(F)F)c4)cs3)cccc21 [Compound 119]
IC50 (NS3/NS4 complexes): < 10 nM
EC50 (hepatitis C replicon): 10 to 100 nM

CC(C)n1c(O[C@@H]2C[C@H]3C(=O)N[C@]4(C(=O)NS(=O)(=O)C5(C)CC5)C[C@H]4/C=C\CCCCC[C@H](NC(=O)OC(C)(C)C)C(=O)N3C2)nc2c(-c3nc(Cc4cccc(OC(F)(F)F)c4)cs3)cccc21 [Compound 120]
IC50 (NS3/NS4 complexes): < 10 nM
EC50 (hepatitis C replicon): 10 to 100 nM

CC(C)n1c(O[C@@H]2C[C@H]3C(=O)N[C@]4(C(=O)NS(=O)(=O)C5(C)CC5)C[C@H]4/C=C\CCCCC[C@H](NC(=O)OC(C)(C)C)C(=O)N3C2)nc2c(-c3nc(Cc4ccc(OC(F)(F)F)cc4)cs3)cccc21 [Compound 121]
IC50 (NS3/NS4 complexes): < 10 nM
EC50 (hepatitis C replicon): 10 to 100 nM

CC(C)n1c(O[C@@H]2C[C@H]3C(=O)N[C@]4(C(=O)NS(=O)(=O)C5(C)CC5)C[C@H]4/C=C\CCCCC[C@H](NC(=O)OC(C)(C)C)C(=O)N3C2)nc2c(-c3nc(Cc4ccc(Cl)cc4)cs3)cccc21 [Compound 122]
IC50 (NS3/NS4 complexes): < 10 nM
EC50 (hepatitis C replicon): > 100 nM

COc1cccc(Cc2csc(-c3cccc4c3nc(O[C@@H]3C[C@H]5C(=O)N[C@]6(C(=O)NS(=O)(=O)C7(C)CC7)C[C@H]6/C=C\CCCCC[C@H](NC(=O)OC(C)(C)C)C(=O)N5C3)n4C(C)C)n2)c1 [Compound 123]
IC50 (NS3/NS4 complexes): < 10 nM
EC50 (hepatitis C replicon): < 10 nM

COc1ccc(Cc2csc(-c3cccc4c3nc(O[C@@H]3C[C@H]5C(=O)N[C@]6(C(=O)NS(=O)(=O)C7(C)CC7)C[C@H]6/C=C\CCCCC[C@H](NC(=O)OC(C)(C)C)C(=O)N5C3)n4C(C)C)n2)cc1 [Compound 124]
IC50 (NS3/NS4 complexes): < 10 nM
EC50 (hepatitis C replicon): < 10 nM

CC(C)n1c(O[C@@H]2C[C@H]3C(=O)N[C@]4(C(=O)NS(=O)(=O)C5(C)CC5)C[C@H]4/C=C\CCCCC[C@H](NC(=O)OC(C)(C)C)C(=O)N3C2)nc2c(-c3csc(N4CCCC4)n3)cccc21 [Compound 125]
IC50 (NS3/NS4 complexes): < 10 nM
EC50 (hepatitis C replicon): < 10 nM

CC(C)n1c(O[C@@H]2C[C@H]3C(=O)N[C@]4(C(=O)NS(=O)(=O)C5(C)CC5)C[C@H]4/C=C\CCCCC[C@H](NC(=O)OC(C)(C)C)C(=O)N3C2)nc2c(-c3cnccn3)cccc21 [Compound 126]
IC50 (NS3/NS4 complexes): < 10 nM
EC50 (hepatitis C replicon): < 10 nM

CC(C)n1c(O[C@@H]2C[C@H]3C(=O)N[C@]4(C(=O)NS(=O)(=O)C5(C)CC5)C[C@H]4/C=C\CCCCC[C@H](NC(=O)OC(C)(C)C)C(=O)N3C2)nc2c(-c3csc(N4CCN(C)CC4)n3)cccc21 [Compound 127]
IC50 (NS3/NS4 complexes): < 10 nM
EC50 (hepatitis C replicon): < 10 nM

CC(C)n1c(O[C@@H]2C[C@H]3C(=O)N[C@]4(C(=O)NS(=O)(=O)C5(C)CC5)C[C@H]4/C=C\CCCCC[C@H](NC(=O)OC(C)(C)C)C(=O)N3C2)nc2c(-c3cncc(N4CCCC4)n3)cccc21 [Compound 128]
IC50 (NS3/NS4 complexes): < 10 nM
EC50 (hepatitis C replicon): < 10 nM

CC(C)n1c(O[C@@H]2C[C@H]3C(=O)N[C@]4(C(=O)NS(=O)(=O)C5(C)CC5)C[C@H]4/C=C\CCCCC[C@H](NC(=O)OC(C)(C)C)C(=O)N3C2)nc2c(-c3cscn3)cccc21 [Compound 129]
IC50 (NS3/NS4 complexes): < 10 nM
EC50 (hepatitis C replicon): < 10 nM

CC(C)n1c(O[C@@H]2C[C@H]3C(=O)N[C@]4(C(=O)NS(=O)(=O)N(C)C)C[C@H]4/C=C\CCCCC[C@H](NC(=O)OC(C)(C)C)C(=O)N3C2)nc2c(-c3nc(-c4cccc(Cl)c4)cs3)cccc21 [Compound 130]
IC50 (NS3/NS4 complexes): < 10 nM
EC50 (hepatitis C replicon): 10 to 100 nM

COc1ccccc1-c1csc(-c2cccc3c2nc(O[C@@H]2C[C@H]4C(=O)N[C@]5(C(=O)NS(=O)(=O)N(C)C)C[C@H]5/C=C\CCCCC[C@H](NC(=O)OC(C)(C)C)C(=O)N4C2)n3C(C)C)n1 [Compound 131]
IC50 (NS3/NS4 complexes): < 10 nM
EC50 (hepatitis C replicon): 10 to 100 nM

COc1cccc(-c2csc(-c3cccc4c3nc(O[C@@H]3C[C@H]5C(=O)N[C@]6(C(=O)NS(=O)(=O)N(C)C)C[C@H]6/C=C\CCCCC[C@H](NC(=O)OC(C)(C)C)C(=O)N5C3)n4C(C)C)n2)c1 [Compound 132]
IC50 (NS3/NS4 complexes): < 10 nM
EC50 (hepatitis C replicon): 10 to 100 nM

CC(C)n1c(O[C@@H]2C[C@H]3C(=O)N[C@]4(C(=O)NS(=O)(=O)N(C)C)C[C@H]4/C=C\CCCCC[C@H](NC(=O)OC(C)(C)C)C(=O)N3C2)nc2c(-c3nc(-c4cccc(F)c4)cs3)cccc21 [Compound 133]
IC50 (NS3/NS4 complexes): < 10 nM
EC50 (hepatitis C replicon): 10 to 100 nM

CC(C)n1c(O[C@@H]2C[C@H]3C(=O)N[C@]4(C(=O)NS(=O)(=O)N(C)C)C[C@H]4/C=C\CCCCC[C@H](NC(=O)OC(C)(C)C)C(=O)N3C2)nc2c(-c3nc(-c4ccc(F)cc4)cs3)cccc21 [Compound 134]
IC50 (NS3/NS4 complexes): < 10 nM
EC50 (hepatitis C replicon): 10 to 100 nM
